Source: patent publication US12408662B2, “Hydrogen peroxide and peracid stabilization with molecules based on a pyridine carboxylic acid” (ECOLAB USA INC., priority 2018, dated 2025)

Test: Stability of peroxyacetic acid compositions with lower acetic acid relative to hydrogen peroxide (Example 3, FIG. 3)
Type: physicochemical

stabilization of peroxyacetic acid (in words): comparable to commonly used stabilizers
SMILES: O=C(O)c1cccnc1 [Niacin, 3-pyridinecarboxylic acid]
